Measurements as given in patent US11180474B2 (BRISTOL-MYERS SQUIBB COMPANY, priority 2016, dated 2021).
Where a name gives a salt, the structure may show the parent alone.

Legend:
human TLR8 = target: T1, human TLR8 (Homo sapiens, UniProt Q9NR97); assay: TLR8 inhibition reporter assay (HEK-Blue cells, SEAP reporter, R848 stimulation); format: cell-based; conditions: HEK-Blue cells overexpressing human TLR8, R848 15.9 μM
T1 construct: host or cells: HEK-Blue cells
T1 sequence (Q9NR97 27-1041): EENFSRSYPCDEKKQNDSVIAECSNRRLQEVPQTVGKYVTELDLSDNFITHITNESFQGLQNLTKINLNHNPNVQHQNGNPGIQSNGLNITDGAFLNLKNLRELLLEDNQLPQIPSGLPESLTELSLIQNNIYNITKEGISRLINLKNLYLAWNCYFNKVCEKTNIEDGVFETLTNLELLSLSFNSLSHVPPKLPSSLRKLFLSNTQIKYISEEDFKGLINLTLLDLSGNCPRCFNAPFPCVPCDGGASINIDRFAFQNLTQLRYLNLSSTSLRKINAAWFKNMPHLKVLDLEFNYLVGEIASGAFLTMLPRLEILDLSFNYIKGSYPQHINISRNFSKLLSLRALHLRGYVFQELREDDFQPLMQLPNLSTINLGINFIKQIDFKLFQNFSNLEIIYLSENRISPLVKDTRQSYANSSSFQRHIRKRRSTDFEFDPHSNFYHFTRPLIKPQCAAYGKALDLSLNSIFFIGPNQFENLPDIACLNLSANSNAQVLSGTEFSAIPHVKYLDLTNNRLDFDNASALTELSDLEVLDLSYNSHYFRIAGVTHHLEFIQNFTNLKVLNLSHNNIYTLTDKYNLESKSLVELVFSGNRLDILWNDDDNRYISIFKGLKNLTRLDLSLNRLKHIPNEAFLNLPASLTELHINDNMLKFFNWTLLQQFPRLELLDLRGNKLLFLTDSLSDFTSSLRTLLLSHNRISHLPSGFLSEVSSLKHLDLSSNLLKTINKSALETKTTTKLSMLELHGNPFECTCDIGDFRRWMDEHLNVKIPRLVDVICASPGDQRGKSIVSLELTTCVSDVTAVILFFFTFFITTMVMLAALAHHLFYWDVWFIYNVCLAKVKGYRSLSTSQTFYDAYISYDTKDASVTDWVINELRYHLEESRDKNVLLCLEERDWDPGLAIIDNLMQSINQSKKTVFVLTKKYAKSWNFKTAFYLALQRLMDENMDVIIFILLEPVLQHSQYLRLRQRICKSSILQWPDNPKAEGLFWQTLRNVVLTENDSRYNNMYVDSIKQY
Method in brief: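 22 h, 37° C, 5% CO2 incubation; compounds 0.05 nM-50 μM final; TLR7 cells 15000/well, TLR8 20,000/well. Readout: SEAP via HEK-Blue Detection medium. % inhibition = signal reduction versus agonist + DMSO wells, referenced to known inhibitor.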

human TLR9 = target: T2, human TLR9 (Homo sapiens, UniProt Q9NR96); assay: TLR9 inhibition reporter assay (HEK-Blue cells, SEAP reporter, ODN2006 stimulation); format: cell-based; conditions: HEK-Blue cells overexpressing human TLR9, ODN2006 5 nM
T2 construct: host or cells: HEK-Blue cells
T2 sequence (Q9NR96 26-1032): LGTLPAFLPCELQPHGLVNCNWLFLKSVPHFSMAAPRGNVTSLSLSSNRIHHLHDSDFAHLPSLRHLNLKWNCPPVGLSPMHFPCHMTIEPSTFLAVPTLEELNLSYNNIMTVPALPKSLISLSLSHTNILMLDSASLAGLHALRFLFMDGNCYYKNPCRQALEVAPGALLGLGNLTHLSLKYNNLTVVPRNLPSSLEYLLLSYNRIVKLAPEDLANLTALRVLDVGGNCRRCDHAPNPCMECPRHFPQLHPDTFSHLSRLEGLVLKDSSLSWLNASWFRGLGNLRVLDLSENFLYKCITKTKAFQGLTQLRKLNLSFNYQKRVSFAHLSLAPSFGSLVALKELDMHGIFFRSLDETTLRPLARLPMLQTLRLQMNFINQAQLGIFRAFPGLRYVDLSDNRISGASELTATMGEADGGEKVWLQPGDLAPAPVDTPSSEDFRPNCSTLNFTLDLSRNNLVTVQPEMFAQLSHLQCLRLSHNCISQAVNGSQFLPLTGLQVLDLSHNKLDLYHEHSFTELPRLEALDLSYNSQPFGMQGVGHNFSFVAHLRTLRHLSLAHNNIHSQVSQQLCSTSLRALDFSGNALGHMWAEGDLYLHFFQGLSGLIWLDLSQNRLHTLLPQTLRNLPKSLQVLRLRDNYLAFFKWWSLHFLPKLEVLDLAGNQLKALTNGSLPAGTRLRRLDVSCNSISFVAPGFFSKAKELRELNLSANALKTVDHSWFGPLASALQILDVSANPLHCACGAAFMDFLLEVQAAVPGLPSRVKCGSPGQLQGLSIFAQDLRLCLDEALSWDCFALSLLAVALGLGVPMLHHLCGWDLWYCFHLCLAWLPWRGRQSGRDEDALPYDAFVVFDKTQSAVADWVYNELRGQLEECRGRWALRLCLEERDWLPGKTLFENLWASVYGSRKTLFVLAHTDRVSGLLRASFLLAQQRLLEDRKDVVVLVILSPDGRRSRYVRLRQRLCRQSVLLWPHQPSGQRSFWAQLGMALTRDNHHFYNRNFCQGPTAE
Method in brief: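 Compound treatment: 30 min, RT, 0.05 nM–50 μM final. Agonist: TLR7 gardiquimod 7.5 μM; TLR8 R848 15.9 μM; TLR9 ODN2006 5 nM. Incubation 22 h, 37 °C, 5% CO2. Readout SEAP, HEK-Blue Detection.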

IC50 (human TLR8)	IC50 (human TLR9)	Compound
1290 nM	2600 nM	CCc1c(-c2ccc(OC)c(OC)c2)[nH]c2ccc(C3CCN(C4CCN(Cc5cc6ccccc6n5C)CC4)CC3)cc12 [Example 137, 2-(3,4-dimethoxyphenyl)-3-ethyl-5-(1′-((1-methyl-1H-indol-2-yl)methyl)-[1,4′-bipiperidin]-4-yl)-1H-indole]
73 nM	495 nM	CCc1c(-c2ccc(OC)c(OC)c2)[nH]c2ccc(C3CCN(C4CCN(Cc5cc(C)n(C)n5)CC4)CC3)cc12 [Example 144, 2-(3,4-dimethoxyphenyl)-5-(1′-((1,5-dimethyl-1H-pyrazol-3-yl)methyl)-[1,4′-bipiperidin]-4-yl)-3-ethyl-1H-indole]
46900 nM	2290 nM	CNCCN1CCC(c2cc3c(C(C)C)c(-c4ccc(OC)c(OC)c4)[nH]c3cc2C)CC1 [Example 207, 2-(4-(2-(3,4-dimethoxyphenyl)-3-isopropyl-6-methyl-1H-indol-5-yl)piperidin-1-yl)-N-methylethan-1-amine]
54 nM	5010 nM	COc1ccc(-c2[nH]c3ccc(C4CCNCC4)cc3c2C(C)C)cc1OC [Example 194, 2-(3,4-dimethoxyphenyl)-3-isopropyl-5-(piperidin-4-yl)-1H-indole hydrochloride]
162 nM	1280 nM	CCc1c(-c2ccc(OC)c(OC)c2)[nH]c2ccc(C3CCN(C(=O)C4(C)CCNCC4)CC3)cc12 [Example 187, (4-(2-(3,4-dimethoxyphenyl)-3-ethyl-1H-indol-5-yl)piperidin-1-yl)(4-methylpiperidin-4-yl)methanone]
256 nM	≥ 50000 nM	COc1ccc(-c2[nH]c3ccc(C4CCN(C(=O)CNCC#N)CC4)cc3c2C(C)C)cc1OC [Example 214, 2-((2-(4-(2-(3,4-dimethoxyphenyl)-3-isopropyl-1H-indol-5-yl)piperidin-1-yl)-2-oxoethyl)amino) acetonitrile]
268 nM	1400 nM	CCc1c(-c2ccc(OC)c(OC)c2)[nH]c2ccc(C3CCN(C4CCN(Cc5c(C)noc5C)CC4)CC3)cc12 [Example 138, 4-((4-(2-(3,4-dimethoxyphenyl)-3-ethyl-1H-indol-5-yl)-[1,4′-bipiperidin]-1′-yl)methyl)-3,5-dimethylisoxazole]
68 nM	747 nM	CCc1c(-c2ccc(OC)c(OC)c2)[nH]c2ccc(C3CCN(C(=O)CN4CCCC(C(=O)N(CC)CC)C4)CC3)cc12 (single isomer, unassigned) [Example 179, 1-(2-(4-(2-(3,4-dimethoxyphenyl)-3-ethyl-1H-indol-5-yl)piperidin-1-yl)-2-oxoethyl)-N,N-diethylpiperidine-3-carboxamide]
131 nM	5230 nM	CCc1c(-c2ccc(OC)c(OC)c2)[nH]c2ccc(C3CCN(C(=O)CN4CCCC(C(=O)N(CC)CC)C4)CC3)cc12 (single isomer, unassigned) [Example 178, 1-(2-(4-(2-(3,4-dimethoxyphenyl)-3-ethyl-1H-indol-5-yl)piperidin-1-yl)-2-oxoethyl)-N,N-diethylpiperidine-3-carboxamide]
